Assay: Hepatic Stability Assay (in vitro half-life method)
Assay type: in vitro ADME
Design: dose or concentration left out as unconfirmed
Conditions: pooled cryopreserved hepatocytes, 37° C., 1×10^6 cells/mL, 0-6 hours, LC-MS/MS, 39.5 hours is the maximum detectable half life, read-out: t½ (converted)
Protocol: Hepatic Stability Assay The metabolic stability of certain compounds disclosed herein was assessed in vitro in pooled cryopreserved hepatocytes using the in vitro half-life method. Incubations were at 37° C. and final concentrations in the incubations were 1×10^6 cells/mL and […] test concentration of the compound. Aliquots were sequentially removed after 0, 1, 3 and 6 hours and analyzed by LC-MS/MS. In vitro half-life was determined by measuring the rate of disappearance of the compound and then scaled to predicted hepatic clearance using the well-stirred model. […] As such, compounds having a value of 39.5 may have a half live that exceeds 39.5 hours.

| half-life [min] | Structure (SMILES) |
| --- | --- |
| 570 | Cc1nnc(C2(NC(=O)C(=O)c3c(C)c(C(=O)Nc4ccc(F)c(Cl)c4)n4c3CCC4)CC2)[nH]1 [Example 51, N-(3-chloro-4-fluorophenyl)-6-methyl-7-(2-((1-(5-methyl-4H-1,2,4-triazol-3-yl)cyclopropyl)amino)-2-oxoacetyl)-2,3-dihydro-1H-pyrrolizine-5-carboxamide] |
| 1070 | Cc1c(C(=O)C(=O)NC2(c3c[nH]nn3)CC(F)(F)C2)c2n(c1C(=O)Nc1ccnc(C(F)F)c1F)C[C@H](F)C2 [Example 134, (R)-7-(2-((3,3-difluoro-1-(1H-1,2,3-triazol-4-yl)cyclobutyl)amino)-2-oxoacetyl)-N-(2-(difluoromethyl)-3-fluoropyridin-4-yl)-2-fluoro-6-methyl-2,3-dihydro-1H-pyrrolizine-5-carboxamide] |
| 672 | Cc1c(C(=O)C(=O)NC2(c3c[nH]nn3)CC2)c2n(c1C(=O)Nc1ccnc(C(F)F)c1F)[C@@H]1C[C@@H]1C2 [Example 63, (1aR,6aR)-5-(2-((1-(1H-1,2,3-triazol-4-yl)cyclopropyl)amino)-2-oxoacetyl)-N-(2-(difluoromethyl)-3-fluoropyridin-4-yl)-4-methyl-1,1a,6,6a-tetrahydrocyclopropa[b]pyrrolizine-3-carboxamide] |
| 1630 | CNC(=O)C1(NC(=O)C(=O)c2c(C)c(C(=O)Nc3ccc(F)c(C#N)c3)n3c2C[C@H]2C[C@H]23)CC(F)(F)C1 [Example 30, (1aR,6aR)—N-(3-cyano-4-fluorophenyl)-5-(2-((3,3-difluoro-1-(methylcarbamoyl)cyclobutyl)amino)-2-oxoacetyl)-4-methyl-1,1a,6,6a-tetrahydrocyclopropa[b]pyrrolizine-3-carboxamide] |
| 888 | Cc1nnc(C2(NC(=O)C(=O)c3c(C)c(C(=O)Nc4cc(F)c(F)c(F)c4)n4c3CCC4)CC2)o1 [Example 65, 6-methyl-7-(2-((1-(5-methyl-1,3,4-oxadiazol-2-yl)cyclopropyl)amino)-2-oxoacetyl)-N-(3,4,5-trifluorophenyl)-2,3-dihydro-1H-pyrrolizine-5-carboxamide] |
| 792 | Cc1nnc(C2(NC(=O)C(=O)c3c(C)c(C(=O)Nc4ccc(F)c(Cl)c4)n4c3CCC4)CC2)o1 [Example 64, N-(3-chloro-4-fluorophenyl)-6-methyl-7-(2-((1-(5-methyl-1,3,4-oxadiazol-2-yl)cyclopropyl)amino)-2-oxoacetyl)-2,3-dihydro-1H-pyrrolizine-5-carboxamide] |
| 900 | Cc1c(C(=O)C(=O)N[C@H](C)C(F)(F)F)c2n(c1C(=O)Nc1ccc(F)c(Cl)c1)CCC2 [Example 2, (R)—N-(3-chloro-4-fluorophenyl)-6-methyl-7-(2-oxo-2-((1,1,1-trifluoropropan-2-yl)amino)acetyl)-2,3-dihydro-1H-pyrrolizine-5-carboxamide] |
| 312 | CNC(=O)C1(NC(=O)C(=O)c2c(C)c(C(=O)Nc3ccc(F)c(Cl)c3)n3c2C[C@H]2C[C@H]23)CC(F)(F)C1 [Example 5, (1aR,6aR)—N-(3-chloro-4-fluorophenyl)-5-(2-((3,3-difluoro-1-(methylcarbamoyl)cyclobutyl)amino)-2-oxoacetyl)-4-methyl-1,1a,6,6a-tetrahydrocyclopropa[b]pyrrolizine-3-carboxamide] |
| 912 | Cc1c(C(=O)C(=O)NC2(CO)CC(F)(F)C2)c2n(c1C(=O)Nc1ccc(F)c(F)c1)CCC2 [Example 118, 7-(2-((3,3-difluoro-1-(hydroxymethyl)cyclobutyl)amino)-2-oxoacetyl)-N-(3,4-difluorophenyl)-6-methyl-2,3-dihydro-1H-pyrrolizine-5-carboxamide] |
| 288 | Cc1c(C(=O)C(=O)NC2(c3c[nH]nn3)CC(F)(F)C2)c2n(c1C(=O)Nc1ccnc(C(F)F)c1)[C@@H]1C[C@@H]1C2 [Example 78, (1aR,6aR)-5-(2-((3,3-difluoro-1-(1H-1,2,3-triazol-4-yl)cyclobutyl)amino)-2-oxoacetyl)-N-(2-(difluoromethyl)pyridin-4-yl)-4-methyl-1,1a,6,6a-tetrahydrocyclopropa[b]pyrrolizine-3-carboxamide] |

Reference: patent publication US10328053B2 (Gilead Sciences, Inc., priority 2016, dated 2019)
